Like-named read-outs stand apart in the source and are kept apart here. Some results are limits rather than exact numbers.

Common to all, as to assay type: cell-based
What all share (conditions): 48 hours

One experiment deals with IL-17FF. Put plainly: IL-17FF production by PHA-stimulated human PBMC (human IL-17F ELI-Pair). The gist of the method: (§1)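 PBMC from healthy donors, 1×10^5/well, 2 μg/ml PHA + compound, 48 h. Supernatant cytokine by Luminex bead assay or ELISA as listed. Screen at 10/1/0.1/0.01 μM; IC50 via semilog titration.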
For experiment [1], the system named is PBMC from healthy human donors. Description: T cell proliferation assay (PHA-stimulated human PBMC, BrdU ELISA). The gist of the method:
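Proliferation was quantified by BrdU ELISA 48 hours after starting culture of 1×10⁵ human PBMC per well with test compound and 2 μg/ml phytohaemagglutinin. Cells came from healthy donors via Ficoll separation and were kept in RPMI1640 with 10% dialysed heat-inactivated FCS.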
A general note: Dividing cells build labelled thymidine or BrdU into new DNA.

In a further experiment the test system is IFN-γ. Description: IFN-γ production by PHA-stimulated human PBMC (OptEIA human IFN-g ELISA). The gist of the method:
as §1
For orientation: An ELISA detects its analyte on a solid surface through an enzyme-linked reagent.

Setting [2] is: human PBMC, 2 μg/ml PHA, read-out: B: IC50 (IL-17FF).
Setting [3] is: human PBMC, 2 μg/ml PHA, read-out: D: IC50 (Tcell proliferation).
[4] abbreviates: human PBMC, 2 μg/ml PHA, read-out: C: IC50 (IFNγ).
Setting [5] is: PHA-stimulated human PBMC, column B, read-out: IC50 (IL-17FF).
Setting [6] is: PHA-stimulated human PBMC, column D, read-out: IC50 (Tcell proliferation).
The mark [7] stands for this setting: PHA-stimulated human PBMC, column C, read-out: IC50 (IFNγ).

As for `Fc1ccccc1-n1ncc(-c2onc(-c3c(F)cccc3Cl)c2-c2nnco2)c1C(F)(F)F` [Example 15, 2-(3-(2-chloro-6-fluorophenyl)-5-(1-(2-fluorophenyl)-5-(trifluoromethyl)-1H-pyrazol-4-yl)isoxazol-4-yl)-1,3,4-oxadiazole], the IC50 (with IL-17FF (setting [2]); in experiment [1] (setting [3]); with IFN-γ (setting [4])) was 100 to 1000 nM in each case.

As to `Cc1nnc(-c2c(-c3c(F)cccc3Cl)noc2-c2cnn(-c3cccnc3)c2C(F)(F)F)o1` [Example B-10, 2-(3-(2-chloro-6-fluorophenyl)-5-(1-(pyridin-3-yl)-5-(trifluoromethyl)-1H-pyrazol-4-yl)isoxazol-4-yl)-5-methyl-1,3,4-oxadiazole], the values for the IC50 (with IL-17FF (setting [2]); in experiment [1] (setting [3]); in the experiment on IFN-γ (setting [4])) were 100 to 1000 nM, 100 to 1000 nM and 10 to 100 nM, respectively.

Consider `O=C(c1c(-c2c(F)cccc2Cl)noc1-c1cnn(-c2cccc(Cl)c2)c1C(F)(F)F)N1CCCO1` [Example I-132, (3-(2-chloro-6-fluorophenyl)-5-(1-(3-chlorophenyl)-5-(trifluoromethyl)-1H-pyrazol-4-yl)isoxazol-4-yl)(isoxazolidin-2-yl)methanone], for which the IC50 in the experiment on IL-17FF (setting [5]) is 10 to 100 nM; in experiment [1] (setting [6]) it was 10 to 100 nM; with IFN-γ (setting [7]), < 10 nM.

For `CCOC(=O)c1c(-c2onc(-c3c(F)cccc3Cl)c2C(=O)OC)cnn1-c1ccc(F)cc1F` [Example I-35, methyl 3-(2-chloro-6-fluorophenyl)-5-(1-(2,4-difluorophenyl)-5-(ethoxycarbonyl)-1H-pyrazol-4-yl)isoxazole-4-carboxylate], the IC50 (in the experiment on IL-17FF (setting [5]); in experiment [1] (setting [6]); in the experiment on IFN-γ (setting [7])) was 100 to 1000 nM throughout.

With `COC(=O)c1c(-c2ccccc2)noc1-c1cnn(-c2cccc(Cl)c2)c1C(F)(F)F` [IB-30, methyl 5-(1-(3-chlorophenyl)-5-(trifluoromethyl)-1H-pyrazol-4-yl)-3-phenylisoxazole-4-carboxylate], the IC50 (in the experiment on IL-17FF (setting [5]); in experiment [1] (setting [6]); in the experiment with IFN-γ (setting [7])) was 100 to 1000 nM throughout.

Take `CC(C)OC(=O)c1c(-c2c(F)cccc2Cl)noc1-c1cnn(-c2ccccc2Cl)c1C(F)(F)F` [IB-60]: the IC50 (with IL-17FF (setting [5]); in experiment [1] (setting [6]); in the experiment on IFN-γ (setting [7])) was 1000 to 10000 nM throughout.

For `CCOC(=O)c1c(-c2c(F)cccc2Cl)noc1-c1cnn(-c2cccc(C#N)c2)c1C(F)(F)F` [IB-32, ethyl 3-(2-chloro-6-fluorophenyl)-5-(1-(3-cyanophenyl)-5-(trifluoromethyl)-1H-pyrazol-4-yl)isoxazole-4-carboxylate], the IC50 is < 10 nM with IL-17FF (setting [5]), 10 to 100 nM in experiment [1] (setting [6]) and < 10 nM in the experiment on IFN-γ (setting [7]).

Regarding `Fc1cccc(-n2ncc(-c3onc(-c4c(F)cccc4Cl)c3-c3nnco3)c2C(F)(F)F)c1` [Example 7], the IC50 was < 10 nM in the experiment with IL-17FF (setting [2]), 10 to 100 nM in experiment [1] (setting [3]) and < 10 nM with IFN-γ (setting [4]).

Turning to `Fc1cc(F)cc(-n2ncc(-c3onc(-c4c(F)cccc4Cl)c3Br)c2C(F)(F)F)c1` [IB-27, 4-bromo-3-(2-chloro-6-fluorophenyl)-5-(1-(3,5-difluorophenyl)-5-(trifluoromethyl)-1H-pyrazol-4-yl)isoxazole], the IC50 (in the experiment on IL-17FF (setting [5]); in experiment [1] (setting [6]); in the experiment with IFN-γ (setting [7])) was 100 to 1000 nM in each case.

Turning to `CC(=O)Nc1cccc(-n2ncc(-c3onc(-c4c(F)cccc4Cl)c3C(=O)OC(C)C)c2C(F)(F)F)c1` [IB-78, isopropyl 5-(1-(3-acetamidophenyl)-5-(trifluoromethyl)-1H-pyrazol-4-yl)-3-(2-chloro-6-fluorophenyl)isoxazole-4-carboxylate], the IC50 in the experiment with IL-17FF (setting [5]) lay in the range of 10 to 100 nM; in experiment [1] (setting [6]), 100 to 1000 nM; in the experiment with IFN-γ (setting [7]), 100 to 1000 nM.

As to `NNC(=O)c1c(-c2c(F)cccc2Cl)noc1-c1cnn(-c2cccc(F)c2)c1C(F)(F)F` [Example I-133, 3-(2-chloro-6-fluorophenyl)-5-(1-(3-fluorophenyl)-5-(trifluoromethyl)-1H-pyrazol-4-yl)isoxazole-4-carbohydrazide], the IC50 (with IL-17FF (setting [5]); in experiment [1] (setting [6]); in the experiment on IFN-γ (setting [7])) was 1000 to 10000 nM throughout.

(Values after patent US8354436B2 (4SC Discovery GmbH, priority 2011, dated 2013).)
